Laboratory results: patent publication US20230339902A1, “TRICYCLIC LIGANDS FOR DEGRADATION OF IKZF2 OR IKZF4” (C4 Therapeutics, Inc., priority 2020, published 2023)
Read-outs that look alike come from different tables or passages of the source.

Columns and labels:
GSPT1 = molecular target: T1, GSPT1 (Homo sapiens, UniProt P15170+Q96SW2); experiment: GSPT1 degradation assay, HiBiT method (Nano-Glo HiBiT Lytic Assay); assay type: cell-based; conditions: 293T.114 (HiBiT-GSPT1) cells, 6 hours
T1 construct: endogenously expressing GSPT1 with HiBiT fusion tag via CRISPR; endogenous in cells; host or cells: 293T.114 (HiBiT-GSPT1), CRISPR knock-in, generated in house
Protocol: Example 62 GSPT1 Degradation Assay
DMEM no-phenol red medium and fetal bovine serum (FBS) were purchased from Gibco (Grand Island, NY, USA). Nano-Glo® HiBiT Lytic Assay System was purchased from Promega (Madison, WI, USA). 293T.114 (HiBiT-GSPT1) cell line was generated in house, endogenously expressing GSPT1 with HiBiT fusion tag via CRISPR. Cell culture flasks and 384-well microplates were acquired from VWR (Radnor, PA, USA).
GSPT1 Degradation Analysis
(§1) GSPT1 degradation was determined based on quantification of luminescent signal using Nano-Glo® HiBiT Lytic Assay kit. Test compounds were added to the 384-well plate from a top concentration of 10 µM with 11 points, half log titration in duplicates. 293T.114 cells were added into 384-well plates at a cell density of 6000 cells per well. The plates were kept at 37° C. with 5% CO2 for 6 hours. The cells treated in the absence of the test compound were the negative control and the cells without Nano-Glo® HiBiT Lytic reagent were the positive control. After 6-hour incubation, Nano-Glo® HiBiT Lytic Assay reagents were added to the designated wells. Luminescence was acquired on EnVision™ Multilabel Reader (PerkinElmer, Santa Clara, CA, USA).

IKZF2 = molecular target: T2, IKZF2 (Homo sapiens, UniProt Q96SW2+Q9UKS7); experiment: IKZF2 degradation assay, HiBiT method (Nano-Glo HiBiT Lytic Assay); assay type: cell-based; conditions: JURKAT.21 (IKZF2-HiBiT) cells
T2 construct: endogenously expressing IKZF2 with HiBiT fusion tag via CRISPR; host or cells: JURKAT.21 (IKZF2-HiBiT), CRISPR knock-in
Source text: Example 61 IKZF2 Degradation Assay
RPMI 1640 Medium without phenol red and fetal bovine serum (FBS) were purchased from Gibco (Grand Island, NY, USA). Nano-Glo® HiBiT Lytic Assay System was purchased from Promega (Madison, WI, USA). JURKAT.21 (IKZF2-HiBiT) cell line, endogenously expressing IKZF2 with HiBiT fusion tag via CRISPR, was purchasing from Synthego (Menlo Park, CA, USA). Cell culture flasks and 384-well microplates were acquired from VWR (Radnor, PA, USA).
IKZF2 Degradation Analysis
as §1, with “IKZF2” for “GSPT1”, “JURKAT.216” for “293T.114”, “5000” for “6000”, “6 or 24” for “6”, “6-hour or 24-hour” for “6-hour”, “cells.” for “designated wells.”

[1] = 6 hours, read-out: HiBiT-Degradation JURKAT.21 IKZF2 6 hours DC50
[2] = 6 hours, read-out: HiBiT-Degradation JURKAT.21 IKZF2 6 hours Emax
[3] = 24 hours, read-out: HiBiT-Degradation JURKAT.21 IKZF2 24 hours DC50
[4] = 24 hours, read-out: HiBiT-Degradation JURKAT.21 IKZF2 24 hours Emax

T2 sequence (Q9UKS7 whole entry, the tested form may be a part): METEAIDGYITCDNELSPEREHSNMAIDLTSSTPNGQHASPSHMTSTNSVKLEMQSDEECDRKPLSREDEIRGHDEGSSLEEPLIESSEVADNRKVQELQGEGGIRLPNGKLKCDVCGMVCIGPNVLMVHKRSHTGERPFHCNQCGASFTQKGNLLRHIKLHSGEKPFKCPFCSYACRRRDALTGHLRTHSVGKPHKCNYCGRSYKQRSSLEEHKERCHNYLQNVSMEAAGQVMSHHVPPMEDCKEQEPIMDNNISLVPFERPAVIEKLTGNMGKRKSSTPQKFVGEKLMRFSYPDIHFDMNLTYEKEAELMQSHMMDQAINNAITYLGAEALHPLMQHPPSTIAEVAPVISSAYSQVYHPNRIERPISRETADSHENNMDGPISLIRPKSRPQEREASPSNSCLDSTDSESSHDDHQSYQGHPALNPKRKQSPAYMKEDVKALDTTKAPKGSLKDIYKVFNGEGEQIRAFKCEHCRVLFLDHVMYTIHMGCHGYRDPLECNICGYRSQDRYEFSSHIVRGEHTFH
T2 sequence (Q96SW2 whole entry, the tested form may be a part): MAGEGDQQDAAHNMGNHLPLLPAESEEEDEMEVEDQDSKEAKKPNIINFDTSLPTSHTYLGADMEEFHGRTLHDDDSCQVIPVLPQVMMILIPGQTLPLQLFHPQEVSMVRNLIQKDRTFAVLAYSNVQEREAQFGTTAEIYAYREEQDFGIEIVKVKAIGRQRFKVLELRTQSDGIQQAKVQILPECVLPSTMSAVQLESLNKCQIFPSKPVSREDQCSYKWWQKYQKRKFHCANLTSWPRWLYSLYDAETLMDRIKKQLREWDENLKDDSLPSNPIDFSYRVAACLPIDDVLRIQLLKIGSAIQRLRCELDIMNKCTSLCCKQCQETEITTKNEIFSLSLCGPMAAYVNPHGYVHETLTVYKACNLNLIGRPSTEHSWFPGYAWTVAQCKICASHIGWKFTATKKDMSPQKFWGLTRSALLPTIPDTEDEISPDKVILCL
T2 sequence (Q16531 whole entry partner, the tested form may be a part): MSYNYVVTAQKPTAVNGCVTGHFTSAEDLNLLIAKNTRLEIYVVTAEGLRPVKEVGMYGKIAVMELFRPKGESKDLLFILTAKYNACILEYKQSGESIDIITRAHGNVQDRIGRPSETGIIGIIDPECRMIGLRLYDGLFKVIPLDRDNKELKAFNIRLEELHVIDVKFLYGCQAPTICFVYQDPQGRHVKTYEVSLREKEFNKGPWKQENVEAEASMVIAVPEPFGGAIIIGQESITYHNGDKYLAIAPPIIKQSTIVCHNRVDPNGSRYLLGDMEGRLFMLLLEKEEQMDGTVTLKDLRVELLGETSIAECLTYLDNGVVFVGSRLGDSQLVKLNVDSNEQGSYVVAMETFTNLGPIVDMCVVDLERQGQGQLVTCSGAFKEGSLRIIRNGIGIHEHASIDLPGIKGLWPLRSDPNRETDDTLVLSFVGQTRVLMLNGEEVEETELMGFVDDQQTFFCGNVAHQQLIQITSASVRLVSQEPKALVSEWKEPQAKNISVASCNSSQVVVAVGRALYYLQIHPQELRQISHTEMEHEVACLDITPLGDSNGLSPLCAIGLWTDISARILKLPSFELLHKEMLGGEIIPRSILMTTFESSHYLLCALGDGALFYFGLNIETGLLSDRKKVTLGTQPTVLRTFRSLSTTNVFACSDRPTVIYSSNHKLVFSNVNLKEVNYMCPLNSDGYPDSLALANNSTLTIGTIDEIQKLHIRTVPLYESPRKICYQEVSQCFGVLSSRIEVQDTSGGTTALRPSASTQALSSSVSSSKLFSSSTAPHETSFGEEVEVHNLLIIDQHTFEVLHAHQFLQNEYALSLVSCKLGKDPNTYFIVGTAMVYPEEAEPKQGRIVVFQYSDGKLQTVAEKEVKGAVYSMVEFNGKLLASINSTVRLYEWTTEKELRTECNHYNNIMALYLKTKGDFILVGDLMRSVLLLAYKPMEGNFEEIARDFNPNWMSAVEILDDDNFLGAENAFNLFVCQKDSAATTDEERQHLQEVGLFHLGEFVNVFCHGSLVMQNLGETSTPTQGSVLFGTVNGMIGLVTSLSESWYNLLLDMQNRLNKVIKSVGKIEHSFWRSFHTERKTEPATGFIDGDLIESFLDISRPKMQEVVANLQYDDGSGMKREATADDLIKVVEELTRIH
T1 sequence (P15170 whole entry, the tested form may be a part): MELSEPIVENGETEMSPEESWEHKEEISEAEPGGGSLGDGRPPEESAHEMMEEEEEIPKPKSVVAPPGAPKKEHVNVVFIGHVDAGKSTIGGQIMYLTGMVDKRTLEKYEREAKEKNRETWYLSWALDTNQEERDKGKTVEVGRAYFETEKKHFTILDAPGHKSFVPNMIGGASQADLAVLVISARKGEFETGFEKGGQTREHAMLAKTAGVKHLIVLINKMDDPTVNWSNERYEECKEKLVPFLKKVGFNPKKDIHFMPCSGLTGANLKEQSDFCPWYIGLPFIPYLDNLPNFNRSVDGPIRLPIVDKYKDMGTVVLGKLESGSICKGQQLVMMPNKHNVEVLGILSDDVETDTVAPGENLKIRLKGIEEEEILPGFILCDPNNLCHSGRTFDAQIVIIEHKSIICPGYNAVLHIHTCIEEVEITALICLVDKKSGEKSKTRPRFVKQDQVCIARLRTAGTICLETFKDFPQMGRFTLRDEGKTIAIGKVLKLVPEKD
T1 sequence (Q96SW2 whole entry, the tested form may be a part): as the sequence (Q96SW2 whole entry, the tested form may be a part) above
T1 sequence (Q16531 whole entry partner, the tested form may be a part): as the sequence (Q16531 whole entry partner, the tested form may be a part) above

Row | Compound | DC50 (GSPT1) [µM] | Emax (GSPT1) [%] | DC50 (IKZF2; [1]) [µM] | Emax (IKZF2; [2]) [%] | DC50 (IKZF2; [3]) [µM] | Emax (IKZF2; [4]) [%]
1 | O=C1CCC(N2C(=O)c3ccc(C4(F)CCN(Cc5ccccc5)CC4)c4cccc2c34)C(=O)N1 (centres unmarked) [Compound 96, 3-[5-(1-benzyl-4-fluoro-4-piperidyl)-2-oxo-benzo[cd]indol-1-yl]piperidine-2,6-dione] | > 10 | 60 to 95 | > 10 | 60 to 95 |  | 
2 | O=C1CCC(N2C(=O)c3ccc(OC4CCCC[C@@H]4N4CC(Oc5cccc(F)c5)C4)c4cccc2c34)C(=O)N1 (stereo in doubt) [Compound 117, 3-[5-[(1R)-2-[3-(3-fluorophenoxy)azetidin-1-yl]cyclohexoxy]-2-oxo-benzo[cd]indol-1-yl]piperidine-2,6-dione] |  |  | > 10 | 60 to 95 |  | 
3 | O=C1CCC(N2C(=O)c3ccc(C4CCN(Cc5ccccc5)CC4)c4nccc2c34)C(=O)N1 (centres unmarked) [Compound 126, 3-[17-(1-benzyl-4-piperidyl)-25-oxo-27,30-diazatricyclododeca-5(17),6(18),7(19),8(27),20-pentaen-30-yl]piperidine-2,6-dione] |  |  | > 10 | 60 to 95 |  | 
4 | O=C1CCC(N2C(=O)c3ccc(N4CCN(Cc5ccccc5)CC4)c4cccc2c34)C(=O)N1 (centres unmarked) [Compound 115] |  |  | > 10 | 60 to 95 |  | 
5 | CN1CCC(F)(c2ccc3c4c(cccc24)N(C2CCC(=O)NC2=O)C3=O)CC1 (centres unmarked) [Compound 97] | > 10 | 60 to 95 | > 10 | 60 to 95 |  | 
6 | CN1CCN(c2ccc3c4c(ccnc24)N(C2CCC(=O)NC2=O)C3=O)CC1 (centres unmarked) [Compound 121] | > 10 | 60 to 95 | > 10 | > 95 |  | 
7 | O=C1CCC(N2C(=O)c3ccc(C4(F)CN(Cc5ccccc5)C4)c4cccc2c34)C(=O)N1 (centres unmarked) [Compound 100, 3-[5-(1-benzyl-3-fluoro-azetidin-3-yl)-2-oxo-benzo[cd]indol-1-yl]piperidine-2,6-dione] | > 10 | > 95 | > 10 | 60 to 95 |  | 
8 | CN1CC(Cc2ccc3c4c(cccc24)N(C2CCC(=O)NC2=O)C3=O)C1 (centres unmarked) [Compound 105, 3-[5-[(1-methylazetidin-3-yl)methyl]-2-oxo-benzo[cd]indol-1-yl]piperidine-2,6-dione] | > 10 | > 95 | > 10 | 60 to 95 |  | 
9 | CC(C)(C)OC(=O)N1CC(Cc2ccc3c4c(cccc24)N(C2CCC(=O)NC2=O)C3=O)C1 (centres unmarked) [Compound 104, Tert-butyl 3-[[1-(2,6-dioxo-3-piperidyl)-2-oxo-benzo[cd]indol-5-yl]methyl]azetidine-1-carboxylate] | > 10 | 60 to 95 | > 10 | 60 to 95 |  | 
10 | CN1CC(c2ccc3c4c(cccc24)N(C2CCC(=O)NC2=O)C3=O)C1 (centres unmarked) [Compound 102, 3-[5-(1-methylazetidin-3-yl)-2-oxo-benzo[cd]indol-1-yl]piperidine-2,6-dione] | > 10 | 60 to 95 | > 10 | 60 to 95 | > 10 | 60 to 95
11 | O=C1CCC(N2C(=O)c3ccc(C(=O)NC(c4ccccc4)C(F)(F)F)c4cccc2c34)C(=O)N1 (centres unmarked) [Compound 110, 1-(2,6-dioxopiperidin-3-yl)-2-oxo-N-(2,2,2-trifluoro-1-phenylethyl)-1,2-dihydrobenzo[cd]indole-5-carboxamide] |  |  | > 10 | 60 to 95 |  | 
12 | CN(c1ccc2c3c(cccc13)N(C1CCC(=O)NC1=O)C2=O)C1CCN(Cc2ccccc2)C1 (centres unmarked) [Compound 116] | > 10 | 60 to 95 |  |  |  | 

Second part, the molecule after the results:

Row | DC50 (GSPT1) [µM] | Emax (GSPT1) [%] | DC50 (IKZF2; [1]) [µM] | Emax (IKZF2; [2]) [%] | DC50 (IKZF2; [3]) [µM] | Emax (IKZF2; [4]) [%] | Compound
13 | > 10 | 60 to 95 |  |  |  |  | O=C1CCC(N2C(=O)c3ccc(C4(F)CCN(Cc5ccccc5)CC4)c4nccc2c34)C(=O)N1 (centres unmarked) [Compound 123, 3-[18-(1-benzyl-4-fluoro-4-piperidyl)-24-oxo-27,30-diazatricyclododeca-5(17),6(18),7(19),8(27),20-pentaen-30-yl]piperidine-2,6-dione]
14 | > 10 | 60 to 95 | > 10 | 60 to 95 | > 10 | 60 to 95 | O=C1CCC(N2C(=O)c3ccc(C4CCN(Cc5cccc(S(=O)(=O)N6CCOCC6)c5)CC4)c4nccc2c34)C(=O)N1 (centres unmarked) [Compound 128, 3-[21-[1-[(3-morpholinosulfonylphenyl)methyl]-4-piperidyl]-29-oxo-31,35-diazatricyclododeca-3(21),4(22),5(23),6(31),24-pentaen-35-yl]piperidine-2,6-dione]
15 | > 10 | 60 to 95 | > 10 | 60 to 95 |  |  | CC(NC(=O)c1ccc2c3c(cccc13)N(C1CCC(=O)NC1=O)C2=O)c1ccccc1 (centres unmarked) [Compound 107, 1-(2,6-dioxo-3-piperidyl)-2-oxo-N-(1-phenylethyl)benzo[cd]indole-5-carboxamide]
16 | > 10 | 60 to 95 |  |  |  |  | CN1CCN(c2ccc3c4c(cccc24)N(C2CCC(=O)NC2=O)C3=O)CC1 (centres unmarked) [Compound 114, 3-[5-(4-methylpiperazin-1-yl)-2-oxo-benzo[cd]indol-1-yl]piperidine-2,6-dione]
17 | > 10 | 60 to 95 |  |  |  |  | COc1ccccc1C(C)NC(=O)c1ccc2c3c(cccc13)N(C1CCC(=O)NC1=O)C2=O (centres unmarked) [Compound 109, 1-(2,6-dioxopiperidin-3-yl)-N-(1-(2-methoxyphenyl)ethyl)-2-oxo-1,2-dihydrobenzo[cd]indole-5-carboxamide]
18 | > 10 | 60 to 95 | > 10 | 60 to 95 |  |  | O=C1CCC(N2C(=O)c3ccc(N4CCN(Cc5ccccc5)CC4)c4nccc2c34)C(=O)N1 (centres unmarked) [Compound 120, 3-[18-(4-benzylpiperazin-1-yl)-24-oxo-26,30-diazatricyclododeca-5,7(19),8(26),17(20),18(21)-pentaen-30-yl]piperidine-2,6-dione]
19 | > 10 | 60 to 95 | > 10 | 60 to 95 |  |  | CC(C)NC(=O)c1ccc2c3c(cccc13)N(C1CCC(=O)NC1=O)C2=O (centres unmarked) [Compound 112, 1-(2,6-dioxopiperidin-3-yl)-N-isopropyl-2-oxo-1,2-dihydrobenzo[cd]indole-5-carboxamide]
20 | > 10 | > 95 | > 10 | 60 to 95 |  |  | CN1CCC(c2ccc3c4c(cccc24)N(C2CCC(=O)NC2=O)C3=O)C1 (centres unmarked) [Compound 98, 3-[5-(1-methylpyrrolidin-3-yl)-2-oxo-benzo[cd]indol-1-yl]piperidine-2,6-dione]
21 | > 10 | > 95 | > 10 | 60 to 95 |  |  | CN1CC(F)(c2ccc3c4c(cccc24)N(C2CCC(=O)NC2=O)C3=O)C1 (centres unmarked) [Compound 101]
22 | > 10 | > 95 | > 10 | 60 to 95 |  |  | O=C1CCC(N2C(=O)c3ccc(C4CCN(Cc5ccccc5)C4)c4cccc2c34)C(=O)N1 (centres unmarked) [Compound 99]
23 | > 10 | 60 to 95 | > 10 | 60 to 95 |  |  | CC(NC(=O)c1ccc2c3c(ccnc13)N(C1CCC(=O)NC1=O)C2=O)c1ccccc1 (centres unmarked) [Compound 122, 27-(2,6-dioxo-3-piperidyl)-20-oxo-N-(1-phenylethyl)-24,27-diazatricyclododeca-6,8(15),9(24),13(16),14(17)-pentaene-14-carboxamide]
24 | > 10 | 60 to 95 | < 0.5 | 45 to 60 | < 0.5 | < 45 | Cc1cc(C)nc(-c2ccc3c4c(cccc24)N(C2CCC(=O)NC2=O)C3=O)n1 (centres unmarked) [Compound 106, 3-[5-(4,6-dimethylpyrimidin-2-yl)-2-oxo-benzo[cd]indol-1-yl]piperidine-2,6-dione]
